Measured values reported in patent US4602109A, “Novel pesticidal phenoxyphenyl and phenoxypyridyl benzoyl ureas and process for preparation” (Union Carbide Corporation, priority 1984, dated 1986).
Converted amounts (≈) assume the structure as drawn. Like-named read-outs stand apart in the source and are kept apart here.

Key:
Assay type in all cases: in vivo
[1] = system: southern armyworm (Spodoptera eridania); assay: Southern Armyworm Leaf Spray Bait Test; conditions: 120 h, read-out: Percent Control after 5 days
Experimental: Suspensions of the test compounds were prepared by dissolving one gram of compound in 50 milliliters of acetone in which had been dissolved 0.1 gram (10 percent of the weight of compound) of an alkylphenoxy polyethoxyethanol surfactant, as an emulsifying or dispersing agent. The resulting solution was mixed into 150 milliliters of water to give roughly 200 milliliters of a suspension containing the compound in finely divided form. The thus-prepared stock suspension contained 0.5 percent by weight of compound.
Certain of the test compounds were also prepared by dissolving 375 mg of compound in 7.5 ml of dimethylformamide. Fifteen ml of acetone containing 37.5 mg (10 percent of the weight of test compound) of an alkylphenoxy polyethoxyethanol surfactant, as a wetting/emulsifying/dispersing agent was added to the dimethylformamide solution. Fifty-two and a half ml of water was mixed into the dimethylformamide-acetone mixture to give roughly 75 ml of a suspension containing the compound in solution or in finely divided form. The thus prepared stock suspension contained 0.5 percent by weight of compound. The test concentrations in parts per million by weight employed in the tests described hereinbelow were obtained by appropriate dilutions of the stock suspension with water. The test procedures were as follows:
Larvae of the southern armyworm (Spodoptera eridania, (Cram.), reared on Tendergreen bean plants at a temperature of 80°±5° F. and a relative humidity of 50±5 percent, constituted the test insects.
The test compounds were formulated by diluting the stock suspension with water to give a suspension containing 500 parts of test compound per million parts of final formulation. Potted Tendergreen bean plants of standard height and age were placed on a revolving turntable and sprayed with 100-110 milliliters of test compound formulation by use of a DeVilbiss spray gun set at 40 psig air pressure. This application, which lasted 25 seconds, was sufficient to wet plants to run-off. As a control, 100-110 milliliters of a water-acetone-emulsifier solution containing no test compound were also sprayed on infested plants. When dry, the paired leaves were separated and each one was placed in a 9 centimeter Petri dish lined with moistened filter paper. Five randomly selected larvae were introduced into each dish and the dishes were closed. The closed dishes were labeled and held at 80°-85° F. for five days. Although the larvae could easily consume the whole leaf within twenty-four hours, no more food was added. Larvae which were unable to move the length of the body, even upon stimulation by prodding, were considered dead. Percent mortality was recorded for various concentration levels.

[2] = system: H. Zea; assay: Comparison against Heliothis spp: H. Zea
[3] = system: H. Virecens; assay: Comparison against Heliothis spp: H. Virecens; conditions: read-out: LD50, H. Virecens
[4] = Helicoverpa zea; read-out: LD50, H. Zea

| SMILES | mortality at 5 ppm [1] [%] | mortality at 10 ppm [1] [%] | LC50 ([2]; Helicoverpa zea, read-out: LD50, H. Zea) [µg/mL] | LC50 [3] [µg/mL] | mortality at 3 ppm [1] [%] | mortality at 6 ppm [1] [%] | mortality at 12 ppm [1] [%] | LC50 [2, 4] [µg/mL] | mortality at 1.5 ppm [1] [%] | mortality at 20 ppm [1] [%] |
| --- | --- | --- | --- | --- | --- | --- | --- | --- | --- | --- |
| O=C(NC(=O)c1c(F)cccc1F)Nc1ccc(Cl)cc1 [1-(4-chlorophenyl)-3-(2,6-difluorobenzoyl)urea, reference compound] | 40 | 100 | 500 (≈ 1610 µM) | 31 (≈ 99.8 µM) | – | – | – | – | – | – |
| O=C(NC(=O)c1c(F)cccc1F)Nc1cc(Cl)c(Oc2ccc(S(=O)(=O)c3ccc(Cl)cc3)cc2)c(Cl)c1 [Example 2, 1-(2,6-Difluorobenzoyl)-3-(3,5-dichloro-4-[4-(4-chlorophenylsulfonyl)phenoxy]phenyl)urea] | – | – | – | 8.5 (≈ 13.9 µM) | 100 | 90 | 100 | 12.5 (≈ 20.4 µM) | – | – |
| O=C(NC(=O)c1c(F)cccc1F)Nc1ccc(Oc2ccc(S(=O)(=O)c3ccc(Cl)cc3)cc2)c(Cl)c1 [Example 3, 1-(2,6-difluorobenzoyl)-3-(3-chloro-4-[4-((4-chloro-phenylsulfonyl))-phenoxy]phenyl)urea] | – | – | – | 31 (≈ 53.7 µM) | 56 | 75 | 100 | 31 (≈ 53.7 µM) | – | – |
| O=C(NC(=O)c1c(F)cccc1Cl)Nc1ccc(Oc2ccc(S(=O)(=O)c3ccc(Cl)cc3)cc2)cc1 [Example 9, 1-(2-chloro-6-fluorobenzoyl)-3-(4-[4-(4-chloro-phenylsulfonyl)phenoxy]-phenyl)urea] | – | – | – | – | – | 100 | – | – | 60 | 100 |
